Measured values published in US7479540B1, “Adipomodulin and related molecules and methods” (priority 2003, dated 2009).
“And” between values parts separate entries of the source, which are not always exact repeats. Equal entries are not always repeated.

How the values were obtained:
[1] = tested on: HSL+/+ adipocytes; experiment: Lipolysis (glycerol release) in HSL+/+ adipocytes from wild type mice; format: cell-based, mouse; conditions: for Lipolysis (nmol glycerol produced): HSL +/+, 2 hours; for stimulation of lipolysis, result in words: HSL+/+ adipocytes compared with HSL−/−
Method: (§1) To determine whether adipomodulin acts through the classical HSL pathway, Sample 121 was tested in HSL+/+ and HSL−/− adipocytes derived from wild type and HSL knockout mice (obtained from Dr. Grant Mitchell, Sainte Justine Hospital, Montreal, Quebec, Canada), respectively. […] Lipolysis was measured as glycerol release from an adipocyte suspension. In each experiment, adipocytes were pooled from perigonadal fat of two to four 6-month-old mice of the same gender and genotype. One hundred microliters of adipocyte suspension were incubated for 2 hours in a final volume of […] of Krebs-Ringer-HEPES (30 mM) buffer (pH 7.4) supplemented with 2.5% BSA, 2.5% N6-[R-(−)-1-methyl-2-phenyl] adenosine ([…]), and 1 U/mL adenosine deaminase. In some tubes, the lipolytic beta3-adrenergic agonist CL316,243 ([…]) (Wyeth-Ayerst Research Laboratories, Princeton, N.J.) or cAMP agonist (dibutryl cAMP) were added. After a 2-hour incubation, the reaction was stopped by freezing on dry ice. The mixture was extracted with chloroform to remove triglycerides, and glycerol content was then determined by glycerol assay kit (Roche Diagnostics).

[2] = tested on: HSL−/− adipocytes; experiment: Lipolysis (glycerol release) in HSL-/- adipocytes from HSL knockout mice; format: cell-based, mouse; conditions: 2 hours
Method: as §1

[3] = tested on: NIH 3T3-L1 adipocytes; experiment: Lipolysis (glycerol) in differentiated NIH 3T3-L1 adipocytes (Example 8); format: cell-based, mouse; conditions: 0.1 mM, 4 hours, 37° C.
Method: (§2) Stimulation of lipolysis in differentiated 3T3-L1 cells was measured according to the procedure described in Hirsch, A. H. & Rosen, O. M., “Lipolytic stimulation modulates the subcellular distribution of hormone-sensitive lipase in 3T3-L1 cells,” J. Lipid Res., vol. 25, pp. 665-667 (1984), which is incorporated herein in its entirety. The 3T3-L1 preadipocyte cell line (from ATCC) was differentiated by treating confluent monolayers with dexamethasone 0.5 μM, 0.15 μM insulin, and methylisobutylxanthine (IBMX) 0.5 mM. After 48 hours, the cells were fed with fresh medium containing 0.15 μM insulin and maintained in culture for 24 hours. Next, the cells were maintained in insulin-free DMEM containing 10% fetal bovine serum for 4-5 days. On the day of experimentation, the differentiated cells were incubated in serum-free DMEM containing 0.2% fatty acid free BSA and 5 mM glucose and treated with adipomodulin, adipomodulin elution buffer, or IBMX at 37° C. for 4 hours. […] The levels of cAMP in the cytosol and the supernatant were measured by competitive radioimmunoassay. […] After several washing steps, the complexes of radioactive cAMP-antibody are counted in a gamma counter. […]

[4] = tested on: cAMP; experiment: cAMP radioimmunoassay in differentiated NIH 3T3-L1 adipocytes; format: cell-based, mouse
Method: as §2

[5] = biological target: receptor for adipomodulin on NIH 3T3-L1 adipocytes (mouse); experiment: 125I-ligand binding to 3T3-L1 adipocytes at 4 C, 2 h, competitor: excess unlabeled λ- + k-light chain mix

Compound	stimulation of lipolysis, result in words [1]	Lipolysis (nmol glycerol produced) ([1]; 10 uM)	Lipolysis (nmol glycerol produced) ([2]; 10 uM)	further results
CCCC(=O)Nc1ncnc2c1ncn2[C@@H]1O[C@@H]2COP(=O)(O)O[C@H]2[C@H]1OC(=O)CCC [Dibutryl cAMP, dibutryl cAMP]	stimulated lipolysis most dramatically in HSL+/+ adipocytes	–	–	Lipolysis (nmol glycerol produced) ([1]; 1 mM): 7.6 ± 1.0 nmol glycerol produced; Lipolysis (nmol glycerol produced) ([2]; 1 mM): 1.1 ± 0.1 nmol glycerol produced
CC(C)Cn1c(=O)n(C)c(=O)c2[nH]cnc21 [IBMX, methylisobutylxanthine]	–	–	–	Lipolysis [3]: 3400 ± 50 pmol glycerol/well; cAMP ([4]; 0.1 mM, 4 hours, 37° C.): 69 ± 4 fmol/well; effect on cAMP, result in words ([4]; versus medium control and elution buffer controls): significant stimulation of cAMP
CC(C)NCC(O)c1ccc(O)c(O)c1 (stereo not drawn) [Isoproterenol, isoproterenol]	stimulated lipolysis most dramatically in HSL+/+ adipocytes	5.8 ± 1.0 nmol glycerol produced	0.9 ± 0.2 nmol glycerol produced	–
adipomodulin (Sample 122)	–	–	–	Binding, CPM/well [5]: 3230 CPM/well and 3840 CPM/well
C[C@H](Cc1ccc2c(c1)OC(C(=O)[O-])(C(=O)[O-])O2)NC[C@H](O)c1cccc(Cl)c1.[Na+].[Na+] [CL316, 243]	–	6.2 ± 1.1 nmol glycerol produced	1.1 ± 0.3 nmol glycerol produced	–
